Results taken from paper PMC12281475, “Mediator Kinase Inhibitor Selectivity and Activity in Colorectal Cancer” (ACS Chemical Biology, 2025).
pIC50: −log10 of the molar value.

Assays:
[1] = test system: CDK8; design: method as in numbers not given; conditions: reporter displacement assay; previously characterized compounds, no method in this paper; ref numbers not given; read-out: IC50 for in vitro CDK8 binding; cited from earlier work
[2] = target: T1, CDK5_p25NCK (Homo sapiens, UniProt Q00535); assay: Radiometric protein kinase assay (33PanQinase), CDK5_p25NCK; type: biochemical; conditions: slope of the IC50 fit
T1 construct: purchased Reaction Biology

[3] = target: T2, CDK6_CycD2 (Homo sapiens, UniProt Q00534); assay: Radiometric protein kinase assay (33PanQinase), CDK6_CycD2; type: biochemical
T2 construct: purchased Reaction Biology

[4] = target: T3, CDK6_CycD3 (Homo sapiens, UniProt Q00534); assay: Radiometric protein kinase assay (33PanQinase), CDK6_CycD3; type: biochemical
T3 construct: purchased Reaction Biology

[5] = target: T4, CDK2_CycD1 (Homo sapiens, UniProt P24941); assay: Radiometric protein kinase assay (33PanQinase), CDK2_CycD1; type: biochemical; conditions: slope of the IC50 fit
T4 construct: purchased Reaction Biology

[6] = target: T5, CDK1_CycE1 (Homo sapiens, UniProt P06493); assay: Radiometric protein kinase assay (33PanQinase), CDK1_CycE1; type: biochemical
T5 construct: purchased Reaction Biology

[7] = target: CDK14_CycY (Homo sapiens, UniProt O94921); assay: Radiometric protein kinase assay (33PanQinase), CDK14_CycY; type: biochemical
[8] = target: T6, CDK5_p35NCK (Homo sapiens, UniProt Q00535); assay: Radiometric protein kinase assay (33PanQinase), CDK5_p35NCK; type: biochemical
T6 construct: purchased Reaction Biology

[9] = target: T7, CDK1_CycB1 (Homo sapiens, UniProt P06493); assay: Radiometric protein kinase assay (33PanQinase), CDK1_CycB1; type: biochemical
T7 construct: purchased Reaction Biology

[10] = target: T8, CDK2_CycA2 (Homo sapiens, UniProt P24941); assay: Radiometric protein kinase assay (33PanQinase), CDK2_CycA2; type: biochemical
T8 construct: purchased Reaction Biology

[11] = target: T9, CDK3_CycE1 (Homo sapiens, UniProt Q00526); assay: Radiometric protein kinase assay (33PanQinase), CDK3_CycE1; type: biochemical; conditions: slope of the IC50 fit
T9 construct: purchased Reaction Biology

[12] = target: T10, CDK4_CycD1 (Homo sapiens, UniProt P11802); assay: Radiometric protein kinase assay (33PanQinase), CDK4_CycD1; type: biochemical
T10 construct: purchased Reaction Biology

[13] = target: CDK20_CycH (Homo sapiens, UniProt Q8IZL9); assay: Radiometric protein kinase assay (33PanQinase), CDK20_CycH; type: biochemical
[14] = target: T11, CDK13_CycK (Homo sapiens, UniProt Q14004); assay: Radiometric protein kinase assay (33PanQinase), CDK13_CycK; type: biochemical; conditions: slope of the IC50 fit
T11 construct: purchased Reaction Biology

[15] = target: CDK20_CycT1 (Homo sapiens, UniProt Q8IZL9); assay: Radiometric protein kinase assay (33PanQinase), CDK20_CycT1; type: biochemical
[16] = target: T12, CDK7_CycH_MAT1 (Homo sapiens, UniProt P50613); assay: Radiometric protein kinase assay (33PanQinase), CDK7_CycH_MAT1; type: biochemical
T12 construct: purchased Reaction Biology

[17] = target: T13, CDK4_CycD2 (Homo sapiens, UniProt P11802); assay: Radiometric protein kinase assay (33PanQinase), CDK4_CycD2; type: biochemical
T13 construct: purchased Reaction Biology

[18] = target: T14, CDK9_CycT1 (Homo sapiens, UniProt P50750); assay: Radiometric protein kinase assay (33PanQinase), CDK9_CycT1; type: biochemical
T14 construct: purchased Reaction Biology

[19] = target: T15, CDK19_CycC (Homo sapiens, UniProt Q9BWU1); assay: Radiometric protein kinase assay (33PanQinase), CDK19_CycC; type: biochemical
T15 construct: purchased Reaction Biology

[20] = target: T16, CDK3_CycC (Homo sapiens, UniProt Q00526); assay: Radiometric protein kinase assay (33PanQinase), CDK3_CycC; type: biochemical
T16 construct: purchased Reaction Biology

[21] = target: CDK10_CycQ (Homo sapiens, UniProt Q15131); assay: Radiometric protein kinase assay (33PanQinase), CDK10_CycQ; type: biochemical
[22] = target: CDK17_p35NCK (Homo sapiens, UniProt Q00537); assay: Radiometric protein kinase assay (33PanQinase), CDK17_p35NCK; type: biochemical
[23] = target: T17, CDK2_CycE1 (Homo sapiens, UniProt P24941); assay: Radiometric protein kinase assay (33PanQinase), CDK2_CycE1; type: biochemical
T17 construct: purchased Reaction Biology

[24] = target: T18, CDK12_CycK (Homo sapiens, UniProt Q9NYV4); assay: Radiometric protein kinase assay (33PanQinase), CDK12_CycK; type: biochemical
T18 construct: purchased Reaction Biology

[25] = target: T19, CDK6_CycD1 (Homo sapiens, UniProt Q00534); assay: Radiometric protein kinase assay (33PanQinase), CDK6_CycD1; type: biochemical; conditions: slope of the IC50 fit
T19 construct: purchased Reaction Biology

[26] = target: CDK11B 357-795_CycK (Homo sapiens, UniProt P21127); assay: Radiometric protein kinase assay (33PanQinase), CDK11B 357-795_CycK; type: biochemical
[27] = target: T20, CDK16_CycY (Homo sapiens, UniProt Q00536); assay: Radiometric protein kinase assay (33PanQinase), CDK16_CycY; type: biochemical
T20 construct: purchased Reaction Biology

[28] = target: T21, CDK1_CycA2 (Homo sapiens, UniProt P06493); assay: Radiometric protein kinase assay (33PanQinase), CDK1_CycA2; type: biochemical
T21 construct: purchased Reaction Biology

[29] = target: CDK18_CycY (Homo sapiens, UniProt Q07002); assay: Radiometric protein kinase assay (33PanQinase), CDK18_CycY; type: biochemical
[30] = target: T22, CDK8_CycC (Homo sapiens, UniProt P49336); assay: Radiometric protein kinase assay (33PanQinase), CDK8_CycC; type: biochemical; conditions: slope of the IC50 fit
T22 construct: purchased Reaction Biology

[31] = target: T23, CDK15_CycA2 (Homo sapiens, UniProt Q96Q40); assay: Radiometric protein kinase assay (33PanQinase), CDK15_CycA2; type: biochemical
T23 construct: purchased Reaction Biology

[32] = target: T24, CDK9_CycK (Homo sapiens, UniProt P50750); assay: Radiometric protein kinase assay (33PanQinase), CDK9_CycK; type: biochemical
T24 construct: purchased Reaction Biology

[33] = target: T25, CDK4_CycD3 (Homo sapiens, UniProt P11802); assay: Radiometric protein kinase assay (33PanQinase), CDK4_CycD3; type: biochemical
T25 construct: purchased Reaction Biology

[34] = highest assay concentration 1.00E-05 M
[35] = highest assay concentration 1.00E-05 M, read-out: IC50

T25 sequence (P11802 whole entry): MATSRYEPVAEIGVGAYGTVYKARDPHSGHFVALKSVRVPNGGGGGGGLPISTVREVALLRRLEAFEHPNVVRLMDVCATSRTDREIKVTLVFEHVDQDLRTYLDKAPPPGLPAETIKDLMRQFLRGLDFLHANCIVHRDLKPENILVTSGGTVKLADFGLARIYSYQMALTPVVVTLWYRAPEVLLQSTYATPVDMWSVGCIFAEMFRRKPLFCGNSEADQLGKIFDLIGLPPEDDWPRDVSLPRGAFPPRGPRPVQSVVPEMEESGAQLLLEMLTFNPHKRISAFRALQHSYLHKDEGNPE
T25 sequence (P30281 whole entry partner): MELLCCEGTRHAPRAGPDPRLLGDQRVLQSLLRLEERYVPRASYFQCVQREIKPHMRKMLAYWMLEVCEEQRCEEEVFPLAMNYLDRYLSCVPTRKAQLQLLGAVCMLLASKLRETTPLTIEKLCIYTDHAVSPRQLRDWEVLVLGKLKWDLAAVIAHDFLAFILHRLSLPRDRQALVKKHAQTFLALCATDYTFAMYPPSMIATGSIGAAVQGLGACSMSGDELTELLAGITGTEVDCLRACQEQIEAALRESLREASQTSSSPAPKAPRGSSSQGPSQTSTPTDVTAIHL
T13 sequence (P11802 whole entry): as the sequence (P11802 whole entry) above
T13 sequence (P30279 whole entry partner): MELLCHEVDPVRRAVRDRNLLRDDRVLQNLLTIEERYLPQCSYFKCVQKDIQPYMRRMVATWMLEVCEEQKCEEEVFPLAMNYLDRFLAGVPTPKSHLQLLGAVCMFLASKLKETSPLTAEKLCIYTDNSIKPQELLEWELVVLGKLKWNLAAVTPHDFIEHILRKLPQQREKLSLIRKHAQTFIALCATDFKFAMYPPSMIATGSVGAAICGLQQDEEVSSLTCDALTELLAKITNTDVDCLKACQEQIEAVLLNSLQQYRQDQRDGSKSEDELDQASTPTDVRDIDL
Sequence of CDK14_CycY (O94921 whole entry): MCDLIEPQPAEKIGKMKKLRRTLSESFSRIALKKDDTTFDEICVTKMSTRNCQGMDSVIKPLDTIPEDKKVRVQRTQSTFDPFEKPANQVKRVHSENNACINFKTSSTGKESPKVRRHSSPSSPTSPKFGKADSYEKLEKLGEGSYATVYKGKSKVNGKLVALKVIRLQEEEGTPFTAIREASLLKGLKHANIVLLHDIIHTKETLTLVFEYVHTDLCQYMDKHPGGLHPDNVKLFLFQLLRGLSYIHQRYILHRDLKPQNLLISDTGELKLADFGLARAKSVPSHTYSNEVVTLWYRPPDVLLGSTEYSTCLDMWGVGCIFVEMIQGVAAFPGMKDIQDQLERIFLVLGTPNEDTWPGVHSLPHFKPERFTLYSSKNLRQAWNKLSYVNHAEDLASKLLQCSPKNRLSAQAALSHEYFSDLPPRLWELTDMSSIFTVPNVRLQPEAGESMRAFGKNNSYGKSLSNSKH
Sequence of CDK14_CycY (Q8ND76 whole entry partner): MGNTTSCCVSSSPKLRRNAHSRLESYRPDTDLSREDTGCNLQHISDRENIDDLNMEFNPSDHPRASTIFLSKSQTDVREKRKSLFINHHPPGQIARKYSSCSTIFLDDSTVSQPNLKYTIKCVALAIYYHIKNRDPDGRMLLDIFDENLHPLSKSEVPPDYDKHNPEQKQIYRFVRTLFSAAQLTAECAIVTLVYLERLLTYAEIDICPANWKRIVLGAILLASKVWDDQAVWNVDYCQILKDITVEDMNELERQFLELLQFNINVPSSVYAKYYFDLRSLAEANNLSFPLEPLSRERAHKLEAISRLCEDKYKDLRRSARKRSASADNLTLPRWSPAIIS
T14 sequence (P50750 whole entry): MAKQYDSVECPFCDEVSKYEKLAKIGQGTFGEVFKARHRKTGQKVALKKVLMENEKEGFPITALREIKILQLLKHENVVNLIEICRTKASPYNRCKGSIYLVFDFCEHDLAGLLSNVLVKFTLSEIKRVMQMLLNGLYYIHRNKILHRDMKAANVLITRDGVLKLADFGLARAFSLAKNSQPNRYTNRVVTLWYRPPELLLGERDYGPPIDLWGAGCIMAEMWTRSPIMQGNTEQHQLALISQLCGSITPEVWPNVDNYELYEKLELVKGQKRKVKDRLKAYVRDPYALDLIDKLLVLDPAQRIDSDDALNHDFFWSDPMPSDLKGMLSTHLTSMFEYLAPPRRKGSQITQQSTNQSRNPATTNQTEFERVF
T14 sequence (O60563 whole entry partner): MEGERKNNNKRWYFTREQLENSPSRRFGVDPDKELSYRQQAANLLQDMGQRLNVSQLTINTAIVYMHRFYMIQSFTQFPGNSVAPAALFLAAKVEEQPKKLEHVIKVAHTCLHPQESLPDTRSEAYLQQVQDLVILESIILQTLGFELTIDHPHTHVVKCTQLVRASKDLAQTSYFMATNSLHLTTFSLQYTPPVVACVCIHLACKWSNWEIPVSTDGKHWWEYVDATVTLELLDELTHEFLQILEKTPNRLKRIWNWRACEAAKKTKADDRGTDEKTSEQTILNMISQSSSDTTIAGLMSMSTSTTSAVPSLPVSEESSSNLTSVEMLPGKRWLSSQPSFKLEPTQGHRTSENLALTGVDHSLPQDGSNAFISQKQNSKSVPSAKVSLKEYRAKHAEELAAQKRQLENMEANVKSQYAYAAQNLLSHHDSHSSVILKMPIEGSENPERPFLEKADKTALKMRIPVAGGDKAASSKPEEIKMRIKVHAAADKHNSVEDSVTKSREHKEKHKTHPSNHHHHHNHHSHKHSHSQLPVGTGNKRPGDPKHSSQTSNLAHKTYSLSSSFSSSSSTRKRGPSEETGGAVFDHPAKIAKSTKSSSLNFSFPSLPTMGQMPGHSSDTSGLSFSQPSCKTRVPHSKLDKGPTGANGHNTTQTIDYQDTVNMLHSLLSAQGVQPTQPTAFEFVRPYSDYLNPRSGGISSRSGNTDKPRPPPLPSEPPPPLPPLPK
T24 sequence (P50750 whole entry): as the sequence (P50750 whole entry) above
T24 sequence (O75909 whole entry partner): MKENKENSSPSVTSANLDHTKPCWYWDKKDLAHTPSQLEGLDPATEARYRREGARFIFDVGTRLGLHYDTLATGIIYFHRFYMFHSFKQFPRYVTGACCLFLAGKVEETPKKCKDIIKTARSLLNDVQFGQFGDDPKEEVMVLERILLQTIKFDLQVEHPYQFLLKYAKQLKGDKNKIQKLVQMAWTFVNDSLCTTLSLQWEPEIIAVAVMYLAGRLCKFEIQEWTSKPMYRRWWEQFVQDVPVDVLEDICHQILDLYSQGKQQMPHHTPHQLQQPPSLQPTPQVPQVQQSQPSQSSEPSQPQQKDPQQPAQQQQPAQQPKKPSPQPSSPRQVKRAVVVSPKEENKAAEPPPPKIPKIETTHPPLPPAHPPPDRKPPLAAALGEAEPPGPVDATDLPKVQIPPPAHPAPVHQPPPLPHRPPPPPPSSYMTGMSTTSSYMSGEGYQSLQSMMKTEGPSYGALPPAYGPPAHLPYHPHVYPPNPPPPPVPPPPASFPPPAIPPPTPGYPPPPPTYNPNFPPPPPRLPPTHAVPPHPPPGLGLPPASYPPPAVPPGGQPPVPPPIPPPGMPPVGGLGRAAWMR
T15 sequence (Q9BWU1 whole entry): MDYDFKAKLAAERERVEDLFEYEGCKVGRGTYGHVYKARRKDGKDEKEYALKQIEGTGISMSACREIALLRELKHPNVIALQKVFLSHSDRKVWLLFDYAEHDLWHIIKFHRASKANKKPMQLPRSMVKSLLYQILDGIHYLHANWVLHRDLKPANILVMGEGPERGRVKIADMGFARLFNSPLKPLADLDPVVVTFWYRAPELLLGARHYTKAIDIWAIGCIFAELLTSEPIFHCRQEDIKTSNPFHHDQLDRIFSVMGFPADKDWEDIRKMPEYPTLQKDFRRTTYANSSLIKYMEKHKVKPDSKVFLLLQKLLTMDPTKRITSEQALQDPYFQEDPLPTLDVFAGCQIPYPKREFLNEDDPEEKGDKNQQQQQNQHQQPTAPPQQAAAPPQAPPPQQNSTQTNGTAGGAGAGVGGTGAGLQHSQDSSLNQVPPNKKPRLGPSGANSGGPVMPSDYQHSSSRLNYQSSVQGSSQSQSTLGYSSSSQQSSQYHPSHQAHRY
T15 sequence (P24863 whole entry partner): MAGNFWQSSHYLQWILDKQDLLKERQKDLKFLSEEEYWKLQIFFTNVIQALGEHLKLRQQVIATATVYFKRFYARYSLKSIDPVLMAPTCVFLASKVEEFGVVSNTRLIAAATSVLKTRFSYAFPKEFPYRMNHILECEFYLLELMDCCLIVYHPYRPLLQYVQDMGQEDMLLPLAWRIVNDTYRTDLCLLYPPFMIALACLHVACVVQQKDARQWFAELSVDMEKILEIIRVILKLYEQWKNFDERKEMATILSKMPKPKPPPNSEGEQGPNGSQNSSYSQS
T16 sequence (Q00526 whole entry): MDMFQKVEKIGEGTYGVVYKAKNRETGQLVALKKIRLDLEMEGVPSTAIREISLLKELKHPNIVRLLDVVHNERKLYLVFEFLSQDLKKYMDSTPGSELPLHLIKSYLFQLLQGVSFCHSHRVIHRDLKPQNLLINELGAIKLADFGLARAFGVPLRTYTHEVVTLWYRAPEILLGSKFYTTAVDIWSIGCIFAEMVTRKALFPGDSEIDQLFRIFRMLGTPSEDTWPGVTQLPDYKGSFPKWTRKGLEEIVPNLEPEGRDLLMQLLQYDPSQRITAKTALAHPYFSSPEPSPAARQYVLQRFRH
T16 sequence (P24863 whole entry partner): as the sequence (P24863 whole entry partner) above

Structure (SMILES): Cn1ncc2cc(-c3cnc(N)c(Cl)c3N3CCC4(CCNC4=O)CC3)ccc21 [CCT251921]
- pIC50 [1]: 8.31
- Hill Slope [2]: -0.17
- pIC50 [3, 34]: < 5.00
- Hill Slope ([3]; slope of the IC50 fit): -0.59
- pIC50 [4, 34]: < 5.00
- Hill Slope ([4]; slope of the IC50 fit): -0.33
- Hill Slope [5]: 0
- pIC50 [6, 35]: < 5.00
- Hill Slope ([6]; slope of the IC50 fit): -0.77
- pIC50 [7, 34]: < 5.00
- Hill Slope ([7]; slope of the IC50 fit): -0.73
- pIC50 [8, 34]: < 5.00
- Hill Slope ([8]; slope of the IC50 fit): -0.4
- pIC50 [9, 34]: < 5.00
- Hill Slope ([9]; slope of the IC50 fit): -0.32
- pIC50 [10, 35]: < 5.00
- Hill Slope ([10]; slope of the IC50 fit): -0.89
- Hill Slope [11]: -0.12
- pIC50 [12, 34]: < 5.00
- Hill Slope ([12]; slope of the IC50 fit): -0.37
- pIC50 [13, 34]: < 5.00
- Hill Slope ([13]; slope of the IC50 fit): -0.38
- Hill Slope [14]: 0.03
- pIC50 [15, 34]: < 5.00
- Hill Slope ([15]; slope of the IC50 fit): -0.33
- pIC50 [16, 34]: < 5.00
- Hill Slope ([16]; slope of the IC50 fit): -0.33
- pIC50 [17, 34]: < 5.00
- Hill Slope ([17]; slope of the IC50 fit): -0.33
- pIC50 [18, 34]: < 5.00
- Hill Slope ([18]; slope of the IC50 fit): -1.01
- pIC50 [19]: 6.39
- Hill Slope ([19]; slope of the IC50 fit): -0.45
- pIC50 [20]: < 5.00
- Hill Slope ([20]; slope of the IC50 fit): -0.55
- pIC50 [21, 34]: < 5.00
- Hill Slope ([21]; slope of the IC50 fit): -0.72
- pIC50 [22, 34]: < 5.00
- Hill Slope ([22]; slope of the IC50 fit): -0.39
- pIC50 [23, 35]: < 5.00
- Hill Slope ([23]; slope of the IC50 fit): -0.94
- pIC50 [24, 34]: < 5.00
- Hill Slope ([24]; slope of the IC50 fit): -0.32
- Hill Slope [25]: -0.13
- pIC50 [26, 34]: < 5.00
- Hill Slope ([26]; slope of the IC50 fit): -0.41
- pIC50 [27, 34]: < 5.00
- Hill Slope ([27]; slope of the IC50 fit): -0.3
- pIC50 [28, 35]: < 5.00
- Hill Slope ([28]; slope of the IC50 fit): -0.53
- pIC50 [29, 34]: < 5.00
- Hill Slope ([29]; slope of the IC50 fit): -0.84
- Hill Slope [30]: -0.55
- pIC50 [31, 34]: < 5.00
- Hill Slope ([31]; slope of the IC50 fit): -0.85
- pIC50 [32, 34]: < 5.00
- Hill Slope ([32]; slope of the IC50 fit): -0.77
- pIC50 [33, 34]: < 5.00
- Hill Slope ([33]; slope of the IC50 fit): -0.37
